Values belong to the substance of their own block, whether it stands above or below them.
What was measured:
[1] = molecular target: T1, Plasmin (Homo sapiens, UniProt P00747); assay: Protease inhibitory activity assay, plasmin; assay type: biochemical; conditions: 1 μM inhibitor; plasmin 10 nM; H-D-Val-Leu-Lys-pNA 0.6 mM; 25° C.
T1 construct: Plasmin (10 nM); purchased Kabi
Method: H--D--Val--Leu--Lys--pNA
(§1) Inhibition assays were performed in microtiter wells in a total volume of 300 μl in 10 mM NaCl, 50 mM Tris-HCl (pH 7.4), 0.01% TWEEN80 (Polyoxyethylenesorbitan monoleate). The reactions were incubated at 25° C. for ten minutes after which the appropriate chromogenic substrate was added to the final concentration listed in Table 2 and the final reaction was incubated for thirty minutes at 25° C. Amidolytic activity was measured at 405 nm or by fluorescence Em at 460 nm.

[2] = system: Chymotrypsin; assay: Protease inhibitory activity assay, chymotrypsin; assay type: biochemical; conditions: 1 μM inhibitor; chymotrypsin 2.5 nM; MeO-Suc-Arg-Pro-Tyr-pNA 0.6 mM; 25° C.
Method: MeO--Suc--Arg--Pro--Tyr--pNA
as §1

[3] = system: GL Kallikrein (glandular kallikrein); assay: Protease inhibitory activity assay, glandular kallikrein; assay type: biochemical; conditions: 1 μM inhibitor; GL kallikrein 1 U/ml; H-D-Val-Leu-Arg-pNA 0.6 mM; 25° C.
Method: H--D--Val--Leu--Arg--pNA
(§2) Abbreviations in Table 2: rec. refers to recombinant, GL kallikrein refer
(§3) to glandular kallikrein, and PL kallikrein refers to plasma kallikrein.
as §1

[4] = molecular target: T2, PL Kallikrein (plasma kallikrein) (Homo sapiens, UniProt P03952); assay: Protease inhibitory activity assay, plasma kallikrein; assay type: biochemical; conditions: 1 μM inhibitor; PL kallikrein 3 nM; H-D-Pro-Phe-Arg-pNA 0.6 mM; 25° C.
T2 construct: purchased Kabi
T2 sequence (P03952 20-390 limits assumed): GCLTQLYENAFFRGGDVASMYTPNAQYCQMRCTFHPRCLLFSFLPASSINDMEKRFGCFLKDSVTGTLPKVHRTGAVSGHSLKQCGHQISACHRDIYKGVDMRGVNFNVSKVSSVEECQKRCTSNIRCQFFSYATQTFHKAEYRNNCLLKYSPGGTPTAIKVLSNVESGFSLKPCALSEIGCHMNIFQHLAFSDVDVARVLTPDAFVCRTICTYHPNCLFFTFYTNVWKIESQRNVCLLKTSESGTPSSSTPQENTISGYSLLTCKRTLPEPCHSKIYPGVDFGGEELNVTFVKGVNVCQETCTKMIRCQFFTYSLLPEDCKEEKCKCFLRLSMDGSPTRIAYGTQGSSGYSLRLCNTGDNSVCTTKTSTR
T2 sequence (P03952 391-638 limits assumed): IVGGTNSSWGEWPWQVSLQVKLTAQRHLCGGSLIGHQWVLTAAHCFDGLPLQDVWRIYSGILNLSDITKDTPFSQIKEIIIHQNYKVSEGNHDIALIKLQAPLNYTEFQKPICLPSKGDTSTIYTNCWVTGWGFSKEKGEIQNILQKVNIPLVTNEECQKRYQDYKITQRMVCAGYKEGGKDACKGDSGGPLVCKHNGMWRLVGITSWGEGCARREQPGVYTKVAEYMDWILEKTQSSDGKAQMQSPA
Method: (§4) H--D--Pro--Phe--Arg--pNA
as §2, §3, §1

[5] = molecular target: T3, Cathepsin G (Homo sapiens, UniProt P08311); assay: Protease inhibitory activity assay, cathepsin G; assay type: biochemical; conditions: 1 μM inhibitor; Suc-Ala-Ala-Pro-Phe-pNA 0.6 mM; 25° C.
T3 construct: purified at Novo Nordisk A/S; tissue Novo Nordisk A/S (purified there); host or cells: leukocytes (by the cited method)
T3 sequence (P08311 21-255): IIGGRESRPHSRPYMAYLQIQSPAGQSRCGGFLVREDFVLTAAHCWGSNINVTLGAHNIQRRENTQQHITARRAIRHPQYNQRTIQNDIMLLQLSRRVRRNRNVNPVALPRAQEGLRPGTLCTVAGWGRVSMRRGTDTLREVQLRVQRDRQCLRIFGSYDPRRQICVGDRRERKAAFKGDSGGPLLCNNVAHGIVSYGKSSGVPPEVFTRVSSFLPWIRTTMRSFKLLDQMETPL
Method: Cathepsin G Suc--Ala--Ala--Pro--Phe--pNA
(§5) purified at Novo Nordisk A/S
(0.6 mM) (SEQ ID NO: 19)
as §1

[6] = molecular target: T4, Urokinase (Homo sapiens, UniProt P00749); assay: Protease inhibitory activity assay, urokinase; assay type: biochemical; conditions: 1 μM inhibitor; urokinase 5 nM; <Glu-Gly-Arg-pNA 0.6 mM; 25° C.
T4 construct: purchased Serono, Freigung, Germany
Method: as §1

[7] = system: Trypsin; assay: Protease inhibitory activity assay, trypsin; assay type: biochemical; conditions: 1 μM inhibitor; trypsin 8 nM; H-D-Val-Leu-Lys-pNA 0.6 mM; 25° C.
Method: Trypsin (8 nM) H--D--Val--Leu--Lys--pNA
as §1

[8] = molecular target: T5, Leukocyte Elastase (Homo sapiens, UniProt P08246); assay: Protease inhibitory activity assay, leukocyte elastase; assay type: biochemical; conditions: 1 μM inhibitor; MeO-Suc-Ala-Ala-Pro-Val-pNA 0.6 mM; 25° C.
T5 construct: purified at Novo Nordisk A/S; tissue Novo Nordisk A/S (purified there); host or cells: leukocytes
T5 sequence (P08246 30-267): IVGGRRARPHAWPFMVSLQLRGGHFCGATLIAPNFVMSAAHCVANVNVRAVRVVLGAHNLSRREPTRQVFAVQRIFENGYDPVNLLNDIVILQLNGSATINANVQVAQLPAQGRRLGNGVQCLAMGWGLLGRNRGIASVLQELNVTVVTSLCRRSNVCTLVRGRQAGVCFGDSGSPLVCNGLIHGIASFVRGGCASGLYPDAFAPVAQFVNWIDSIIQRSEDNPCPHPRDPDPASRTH
Method: MeO--Suc--Ala--Ala--Pro--Val--pNA
as §5, §1

[9] = molecular target: T6, granulocyte elastase (Homo sapiens, UniProt P08246); conditions: cited from earlier work
T6 sequence (P08246 30-267): T5 sequence (P08246 30-267)

[10] = system: collagenase; conditions: Wenzel and Tschesche 1981; cited from earlier work
[11] = molecular target: plasma kallikrein (Homo sapiens, UniProt P03952); conditions: WO 89/10374; cited from earlier work
Sequence of plasma kallikrein (P03952 20-638, species assumed): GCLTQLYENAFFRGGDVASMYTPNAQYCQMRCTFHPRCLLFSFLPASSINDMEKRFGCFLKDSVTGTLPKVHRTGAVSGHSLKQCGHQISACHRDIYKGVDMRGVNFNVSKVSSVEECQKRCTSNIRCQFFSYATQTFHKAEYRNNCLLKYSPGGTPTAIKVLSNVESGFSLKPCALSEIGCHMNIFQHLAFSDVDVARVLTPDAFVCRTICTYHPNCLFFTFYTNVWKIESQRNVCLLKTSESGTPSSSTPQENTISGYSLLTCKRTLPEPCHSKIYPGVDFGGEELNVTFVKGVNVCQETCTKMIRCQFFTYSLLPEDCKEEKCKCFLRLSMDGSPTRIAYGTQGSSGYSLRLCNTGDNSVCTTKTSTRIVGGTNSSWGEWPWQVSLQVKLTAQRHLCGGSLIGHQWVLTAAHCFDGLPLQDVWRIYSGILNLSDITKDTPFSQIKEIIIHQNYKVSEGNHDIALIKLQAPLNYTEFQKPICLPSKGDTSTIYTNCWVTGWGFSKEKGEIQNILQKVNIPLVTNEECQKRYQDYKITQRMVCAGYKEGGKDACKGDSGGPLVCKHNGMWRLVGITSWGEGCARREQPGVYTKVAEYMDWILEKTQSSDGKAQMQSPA

[12] = molecular target: T7, rec. Protein Ca (activated protein C) (Homo sapiens, UniProt P04070); assay: Protease inhibitory activity assay, activated protein C; assay type: biochemical; conditions: 1 μM inhibitor; rec. Protein Ca 5 nM; <Glu-Pro-Arg-pNA 0.6 mM; 25° C.
T7 construct: purchased Novo Nordisk A/S
T7 sequence (P04070 43-197 limits assumed): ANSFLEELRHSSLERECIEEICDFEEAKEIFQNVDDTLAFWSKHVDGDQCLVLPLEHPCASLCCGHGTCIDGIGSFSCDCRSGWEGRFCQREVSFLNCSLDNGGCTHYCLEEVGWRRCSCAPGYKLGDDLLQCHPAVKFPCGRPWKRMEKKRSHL
T7 sequence (P04070 212-461 limits assumed): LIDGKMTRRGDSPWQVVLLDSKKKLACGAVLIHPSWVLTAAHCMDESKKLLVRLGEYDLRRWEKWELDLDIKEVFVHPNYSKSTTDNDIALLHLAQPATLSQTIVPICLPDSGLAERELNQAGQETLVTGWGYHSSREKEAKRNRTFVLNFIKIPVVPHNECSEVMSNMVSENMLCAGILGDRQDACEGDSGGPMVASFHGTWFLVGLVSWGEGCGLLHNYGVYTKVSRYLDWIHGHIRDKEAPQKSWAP
Method: as §1
r.h. refers to recombinant human, h. refers to human, protein Ca refers t
activated protein C; APPH refers to the KunitzType inhibitor domain of […]

[13] = system: kidneys; conditions: in vivo, repeated injections of relatively high doses; rats, rabbits and dogs; cited from earlier work
[14] = molecular target: T8, human Factor Xa (Homo sapiens, UniProt P00742); assay: Protease inhibitory activity assay, Factor Xa; assay type: biochemical; conditions: 1 μM inhibitor; Factor Xa 3 nM; MeO-CO-CHA-Gly-Arg-pNA 0.3 mM; 25° C.
T8 construct: human Factor Xa (3 nM); purchased Dr. I. Schousboe, Copenhagen, Denmark
T8 sequence (P00742 41-179 limits assumed): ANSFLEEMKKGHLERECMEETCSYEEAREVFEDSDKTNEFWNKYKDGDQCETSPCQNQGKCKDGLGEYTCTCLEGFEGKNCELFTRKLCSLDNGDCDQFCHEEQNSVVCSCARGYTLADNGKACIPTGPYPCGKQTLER
T8 sequence (P00742 235-488 limits assumed): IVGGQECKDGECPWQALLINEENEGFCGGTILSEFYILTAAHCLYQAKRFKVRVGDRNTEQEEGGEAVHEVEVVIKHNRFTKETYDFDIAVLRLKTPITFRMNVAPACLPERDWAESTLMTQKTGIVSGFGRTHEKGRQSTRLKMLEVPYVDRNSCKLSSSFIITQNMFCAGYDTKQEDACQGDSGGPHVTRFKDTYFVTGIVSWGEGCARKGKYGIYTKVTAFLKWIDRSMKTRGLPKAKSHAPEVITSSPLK
Method: The reactions were incubated at 25° C. for ten minutes after which the appropriate chromogenic substrate was added to the final concentration listed in Table 2 and the final reaction was incubated for thirty minutes at 25° C. Amidolytic activity was measured at 405 nm or by fluorescence Em at 460 nm.

[15] = molecular target: T9, rec. human Factor VIIa (Homo sapiens, UniProt P08709); assay: Protease inhibitory activity assay, Factor VIIa; assay type: biochemical; conditions: 1 μM inhibitor; Factor VIIa 300 nM; H-D-Ile-Pro-Arg-pNA 0.6 mM; 25° C.
T9 construct: rec. human Factor VIIa; purchased Novo Nordisk A/S
T9 sequence (P08709 61-212 limits assumed): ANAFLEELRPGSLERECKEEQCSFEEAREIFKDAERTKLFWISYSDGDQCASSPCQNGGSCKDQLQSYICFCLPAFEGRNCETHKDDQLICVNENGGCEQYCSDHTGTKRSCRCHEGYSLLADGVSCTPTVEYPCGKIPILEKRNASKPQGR
T9 sequence (P08709 213-466 limits assumed): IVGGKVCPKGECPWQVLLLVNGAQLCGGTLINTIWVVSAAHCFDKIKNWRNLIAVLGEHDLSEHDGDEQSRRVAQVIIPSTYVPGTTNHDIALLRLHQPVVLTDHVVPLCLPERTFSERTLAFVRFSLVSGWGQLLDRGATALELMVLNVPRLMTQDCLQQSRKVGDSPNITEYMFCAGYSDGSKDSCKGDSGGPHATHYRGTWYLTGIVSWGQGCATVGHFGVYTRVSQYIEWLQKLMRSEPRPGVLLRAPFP
Method: H--D--Ile--Pro--Arg--pNA
as §1

[16] = molecular target: T10, human Factor XIa (Homo sapiens, UniProt P03951); assay: Protease inhibitory activity assay, Factor XIa; assay type: biochemical; conditions: 1 μM inhibitor; Factor XIa 1 nM; Boc-Glu(OBzl)-Ala-Arg-MCA 0.12 mM; 25° C.
T10 construct: human Factor XIa (1 nM); purchased Dr. Kazuo Fujikawa, University of Washington, Seattle, WA
T10 sequence (P03951 19-387 limits assumed): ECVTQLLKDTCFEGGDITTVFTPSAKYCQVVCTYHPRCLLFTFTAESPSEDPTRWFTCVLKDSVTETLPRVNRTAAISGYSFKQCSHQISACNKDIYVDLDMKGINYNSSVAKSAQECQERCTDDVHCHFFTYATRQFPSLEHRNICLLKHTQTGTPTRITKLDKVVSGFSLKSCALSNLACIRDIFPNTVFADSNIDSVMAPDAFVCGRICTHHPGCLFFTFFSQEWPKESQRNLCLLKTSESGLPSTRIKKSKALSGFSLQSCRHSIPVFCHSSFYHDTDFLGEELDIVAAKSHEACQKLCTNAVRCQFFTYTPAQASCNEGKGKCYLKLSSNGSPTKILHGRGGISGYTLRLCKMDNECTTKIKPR
T10 sequence (P03951 388-625 limits assumed): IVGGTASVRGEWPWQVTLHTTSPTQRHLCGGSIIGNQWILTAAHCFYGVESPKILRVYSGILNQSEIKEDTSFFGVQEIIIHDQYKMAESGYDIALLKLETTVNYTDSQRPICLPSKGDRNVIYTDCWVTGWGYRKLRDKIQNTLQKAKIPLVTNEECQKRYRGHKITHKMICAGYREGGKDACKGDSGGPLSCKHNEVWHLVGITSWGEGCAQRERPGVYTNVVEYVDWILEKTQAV
Method: Boc--Glu(OBzl)--Ala--Arg--MCA
as §1

[17] = molecular target: T11, human Factor XIIa (Homo sapiens, UniProt P00748); assay: Protease inhibitory activity assay, Factor XIIa; assay type: biochemical; conditions: 1 μM inhibitor; Factor XIIa 30 nM; H-D-Pro-Phe-Arg-pNA 0.6 mM; 25° C.
T11 construct: human Factor XIIa (30 nM); purchased Dr. Walt Kisiel, University of New Mexico, Albuquerque, NM
T11 sequence (P00748 20-372 limits assumed): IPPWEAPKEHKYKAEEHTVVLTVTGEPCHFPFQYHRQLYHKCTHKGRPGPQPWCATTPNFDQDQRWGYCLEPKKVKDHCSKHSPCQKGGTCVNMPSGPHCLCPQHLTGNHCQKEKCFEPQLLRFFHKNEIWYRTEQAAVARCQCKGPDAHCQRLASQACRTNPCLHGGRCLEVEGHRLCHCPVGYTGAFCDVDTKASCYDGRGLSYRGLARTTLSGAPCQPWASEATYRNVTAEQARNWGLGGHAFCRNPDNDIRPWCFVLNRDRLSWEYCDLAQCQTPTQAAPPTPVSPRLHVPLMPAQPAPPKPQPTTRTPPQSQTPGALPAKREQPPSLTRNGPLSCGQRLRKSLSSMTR
T11 sequence (P00748 373-615 limits assumed): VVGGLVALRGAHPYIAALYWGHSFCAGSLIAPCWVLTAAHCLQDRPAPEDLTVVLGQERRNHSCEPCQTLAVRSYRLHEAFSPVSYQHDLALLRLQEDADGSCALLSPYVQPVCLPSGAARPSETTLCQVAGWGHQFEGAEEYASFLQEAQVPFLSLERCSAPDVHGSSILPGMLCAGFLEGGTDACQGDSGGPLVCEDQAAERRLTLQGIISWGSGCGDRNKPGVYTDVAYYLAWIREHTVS
Method: human Factor XIIa (30 nM)
as §4, §1

[18] = high doses; cardiac surgery including cardiopulmonary bypass operations; cited from earlier work

T1 sequence (P00747 97-580 limits assumed): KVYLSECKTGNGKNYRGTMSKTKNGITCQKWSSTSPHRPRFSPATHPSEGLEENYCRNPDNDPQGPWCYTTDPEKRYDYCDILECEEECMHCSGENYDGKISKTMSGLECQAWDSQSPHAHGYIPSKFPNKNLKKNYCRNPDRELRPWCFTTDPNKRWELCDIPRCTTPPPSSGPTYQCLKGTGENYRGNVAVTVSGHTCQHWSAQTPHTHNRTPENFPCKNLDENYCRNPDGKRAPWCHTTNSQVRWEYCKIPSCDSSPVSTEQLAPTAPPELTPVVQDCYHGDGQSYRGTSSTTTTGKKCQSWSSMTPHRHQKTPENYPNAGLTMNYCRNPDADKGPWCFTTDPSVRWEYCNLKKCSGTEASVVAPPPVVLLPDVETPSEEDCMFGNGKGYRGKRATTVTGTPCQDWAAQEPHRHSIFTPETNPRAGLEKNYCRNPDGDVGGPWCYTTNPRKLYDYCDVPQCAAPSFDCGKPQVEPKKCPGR
T1 sequence (P00747 581-810 limits assumed): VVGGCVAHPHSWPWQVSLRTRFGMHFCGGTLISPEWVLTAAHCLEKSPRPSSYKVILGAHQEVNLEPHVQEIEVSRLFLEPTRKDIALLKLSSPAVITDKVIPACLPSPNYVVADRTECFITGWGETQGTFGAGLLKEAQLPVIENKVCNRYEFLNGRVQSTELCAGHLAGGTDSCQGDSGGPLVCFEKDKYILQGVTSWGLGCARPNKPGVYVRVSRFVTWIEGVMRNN

% Inhibition, Plasmin [1]: 90% | % Inhibition, PL Kallikrein [4]: 71% | % Inhibition, Cathepsin G [5]: 16% | % Inhibition, Urokinase [6]: 0% | % Inhibition, Leukocyte Elastase [8]: 6%
Substance: APP: amyloid protein precursor Kunitz-type inhibitor domain (Example 2E, SEQ ID NO:17), expressed in yeast (EVCSEQAETGPCRAMISRWYFDVTEGKCAPFFYGGCGGNRNNFDTEEYCMAVCGSA)
% Inhibition, Chymotrypsin [2]: 94% | % Inhibition, GI Kallikrein [3]: 82% | % Inhibition, Trypsin [7]: 99.7%

Substance: Aprotinin (1-58, Ala15)
effect on elastase ([9]; literature): weak effect

Substance: aprotinin (1-58, Val15)
selectivity for granulocyte elastase ([9]; Wenzel and Tschesche 1981): relatively high selectivity | inhibitory effect on collagenase [10]: inhibitory effect

Substance: aprotinin (3-58, Arg15, Ala17, Ser42)
plasma kallikrein inhibitory effect [11]: excellent

Substance: aprotinin [BPTI]
% Inhibition, r.h. Protein Ca [12]: 38% | % Inhibition, Plasmin [1]: 100% | % Inhibition, PL Kallikrein [4]: 83% | % Inhibition, Cathepsin G [5]: 4% | nephrotoxic effect [13]: nephrotoxic effect | % Inhibition, h. Factor Xa [14]: 1% | % Inhibition, Urokinase [6]: 1% | % Inhibition, Trypsin [7]: 100% | % Inhibition, r.h. Factor VIIa [15]: 1% | % Inhibition, Leukocyte Elastase [8]: 1% | % Inhibition, h. Factor XIa [16]: 59% | % Inhibition, h. Factor XIIa [17]: 2% | blood loss in connection with cardiac surgery [18]: significantly reduces blood loss
